US10245328B2, “Gadolinium complex comprising DO3A-tranexamic acid conjugate” (KYUNGPOOK NATIONAL UNIVERSITY INDUSTRY-ACADEMIC COOPERATION …, priority 2014, dated 2019)
“Also recorded” adds a separate entry of the source.

Assays:
[1] = Transmetalation kinetics with ZnCl2, evolution of R1P(t)/R1P(0); type: physicochemical; settings: 72 h; phosphate buffer pH 7.4, 2.5 mmol/L Gd complex + 2.5 mmol/L ZnCl2, room temperature, 3T
Experimental: This experiment is prepared using a previous document method (Laurent, S. Elst, L. V.; Copoix, F.; Muller, R. N. Investigative radiology 2001, 36, 115). This is based on measurements of evolution of a water proton longitudinal relaxation rate (R1P) of a buffer solution (phosphate buffer, pH 7.4) containing 2.5 mmol/L gadolinium complex and 2.5 mmol/L ZnCl2. Next, 10 μL ZnCl2 250 mmol/L solution is added to a […] paramagnetic complex buffer solution. The mixture is strongly agitated, and then, 300 μL thereof is taken for a relaxation measurement (relaxometric measurement). […] A R1P relaxation rate is acquired by excluding a diamagnetic contribution of a water proton relaxation from the measured relaxation rate R1=(1/T1). The measurement is performed at a room temperature on a 3T whole body system (Magnetom Tim Trio, Simens, Korea Institute of Radiological & Medical Science).
An evaluation of a normal paramagnetic longitudinal relaxation rate R1P (t)/R1P (0) is observed between the present series 2a-e and comparison examples Dotarem®, Primovist®, Multihance®, and Omniscan® (FIG. 4). The used complex in the test is divided into two following groups based on an evolution pattern: (i) a group employing a macrocyclic chelate (ii) a group employing an acyclic chelate. […]

[2] = test system: ICR mice; experiment: In vivo MR experiment, T1-weighted images after tail vein injection; settings: 0.1 mmol Gd/kg i.v.
Experimental: The in vivo experiment is executed with compliance to a regulation of Animal Research Committee of KNU. 29-31 g weight 6-weeks male ICR mice are used. […] The measurement is carried out before and after the injection of the complexes 2a-e through the tail vein. […] After the mice wake from the anesthesia after each measurement, the mice were placed in a cage capable of free access to feed and food. For this measurement, the animals are held at about 37° C. using a warm water blanket. MR images are taken using a 1.5 T MR unit (GE Healthcare, Milwaukee, Wis.) with a manual RF coil for a small animal. The coil may be of a receiver type having a 50 mm inner diameter. […] MR images are collected for 24 h after the injection. Anatomical positions having an improved contrast are set for a liver, a bile duct, and a kidney on (post contrast) MR images. For quantitative measurements, a signal intensity in a region of interest (ROI) is measured using Advantage Window software (GE medical, U.S.). The CNR is calculated using a following equation (1): […] SNR is a […].

[3] = Stability against hydrolysis in H2O (HPLC, 197 nm); type: physicochemical; settings: for HPLC peak 2.31 min, 2b / HPLC peak 27.11 min, 2a (trans) / HPLC peak 30.48 min, 2a (cis) / HPLC peak 52.24 min: 2a in water
Experimental: The contrast agents of the present series 100 mg are dissolved in distilled water 10 mL and is maintained as they are for 72 hours at 50° C. Using HPLC, O.D. (Optical Density) values are read at 197 nm and the stability of the agents is determined. The substances at each retention time are examined using LC Mass Spectroscopy for accurate identification of decomposed products.

[4] = Relaxation rate measurement (R1, R2) in PBS and in PBS solution of HSA; type: physicochemical; settings: 293K
Experimental: T1 measurement is carried out using an inversion recovery method at 1.5 T (64 MHz) in a variable inverse time (TI). MR images are obtained for 35 different TI values in a range of 50 to 1750 ms. A T1 relaxation time is obtained from a nonlinear least-squares fit of a signal strength measured at each TI value. For a T2 CPMG (Carr-Purcell-Meiboon-Gill) pulse sequence measurement, the measurement is adapted to a multi spin-echo measurement. 34 images are obtained at 34 different echo time (TE) values in a range of 10 to 1900 ms. The T2 relaxation time is obtained from a nonlinear least-squares fit of mean pixel values for multi spin-echo measurement at each echo time. Next, a relaxation rate (R1 and R2) is calculated as an inverse of a relaxation time per mM. The determined relaxation time (T1 and T2) and relaxation rate (R1 and R2) are subjected to an image processing to get a relaxation time map and relaxation rate respectively.
For comparison between the complexes 2a-e, there is no noticeable difference in R1's. The measurement is carried out for two different media, that is, PBS (pH=7.4) and PBS solution of HAS in order to indicate which blood-pool effect is expressed by the complexes 2a-e.

[5] = Kinetic stability in various pH ranges (evolution of R1 in PBS); type: physicochemical; settings: pH 1, [Gd]=1.0 mM in PBS, room temperature
Experimental: The kinetic stability is expressed as evolution of a water proton relaxation rate (R1) for 2 ([Gd]=1.0 mM) in PBS under various pH conditions (pH: 1, 3, 5, 7, 9 and 11) at a room temperature, as a function of the incubation time. The measurement is executed on a 1.5 T whole body system (GE Healthcare, Milwaukee, Wis., USA).

[6] = PBS solution of 0.67 mM HSA, 64 MHz

portion of the initial paramagnetic relaxation rate kept, R1P(t)/R1P(0) [1]	SMILES	signal enhancement / signal strength at the liver ([2]; ICR mice, 1.5 T, initial 1 hour)	liver-specificity / class of contrast agent ([2]; in vivo MR images of mice)	hydrolytic stability (in words) ([3]; 100 mg in distilled water 10 mL, 72 hours at 50° C.)	HPLC peak 2.31 min, 2b ([3]; 50° C./3 day)	HPLC peak 27.11 min, 2a (trans) ([3]; 50° C./3 day)	HPLC peak 30.48 min, 2a (cis) ([3]; 50° C./3 day)	HPLC peak 52.24 min ([3]; 50° C./3 day)	HPLC peak 2.31 min, 2b ([3]; initial)	HPLC peak 27.11 min, 2a (trans) ([3]; initial)	HPLC peak 30.48 min, 2a (cis) ([3]; initial)	HPLC peak 52.24 min ([3]; initial)	R1 ([4]; PBS pH 7.4, 64 MHz (1.5 T))	R2 ([4]; PBS pH 7.4, 64 MHz (1.5 T))	R1 in 0.67 mM HSA [4, 6]	R2 in 0.67 mM HSA [4, 6]	kinetic stability (evolution of R1) [5]
50%	CNC[C@H](O)[C@@H](O)[C@H](O)[C@H](O)CO.CNC[C@H](O)[C@@H](O)[C@H](O)[C@H](O)CO.O=C([O-])CN(CCN(CC(=O)[O-])CC(=O)O)CCN(CC(=O)O)C(COCc1ccccc1)C(=O)[O-].[Gd+3] (stereo not drawn) [Multihance, Gd-BOPTA]	–	–	–	–	–	–	–	–	–	–	–	–	–	–	–	–
50%	CCOc1ccc(CC(CN(CCN(CC(=O)[O-])CC(=O)[O-])CC(=O)[O-])N(CC(=O)[O-])CC(=O)[O-])cc1.[Gd+3].[Na+].[Na+] (stereo not drawn) [Primovist, Gd-EOB-DTPA]	–	–	–	–	–	–	–	–	–	–	–	–	–	–	–	–
–	CCOC(=O)C1CCC(CNC(=O)CN2CCN(CC(=O)[O-])CCN(CC(=O)[O-])CCN(CC(=O)[O-])CC2)CC1.[Gd+3] (stereo not drawn) [2a]	insufficient to be qualified as the liver-specific contrast agent	exhibits the liver-specificity; also recorded: true liver-specific contrast agent	hydrolytic stability falls	0.72%	97.43%	1.25%	0.19%	0.01%	97.73%	1.89%	0.04%	4.84 ± 0.18 mM⁻¹ s⁻¹	4.91 ± 0.25 mM⁻¹ s⁻¹	5.11 ± 0.10 mM⁻¹ s⁻¹	6.04 ± 0.13 mM⁻¹ s⁻¹	sufficient kinetic stability
